Assay results taken from US8476433B2, “Agent exhibiting the properties of a cognitive function promoter (embodiments)” (Unikorm, priority 2010, dated 2013).

Assays:
[1] = test system: learning and memory of mice, scopolamine-induced amnesia; assay: Conditioned passive avoidance response (CPAR), step down method, in model of amnesia induced by scopolamine and undertraining; type: in vivo; conditions: for Number of animals with CPAR (%): male mice; for effect on learning and memory during scopolamine-induced amnesia: mice, i/p before or immediately after training, tested after 2 hours and 24 hours
Description: In order to study the activity of the synthesized compounds in vivo one of the most used methodologies of examination and assessment of activation of cognitive functions was used—improvement or easier development of conditioned passive avoidance response (CPAR) in animals. From the time of study of cognitive properties of nootropil and up to the present time, conditioned passive avoidance response (CPAR) is used more often than other behavioral procedures for studying and screening of drugs affecting the processes of learning and memory in rodents. CPAR is used for studying the action of drugs on learning (if the tested drug is administered before a training session), on saving or retention in memory (if the drug is administered after the training) and on memory retrieval (administering drugs before memory testing). This method is also used to study and test substances in models of disorders of learning and memory, caused by experimental brain dysfunction (GABA, cholinergic, induced by cholinergic toxin AF64A), alcohol-benzodiazepine induced, electrocution induced, hypoxia induced and age-related amnesias, inhibition of protein synthesis, etc..
Comparative study of the effects of compounds 1 and 2 on learning and memory of mice in tests of conditioned passive avoidance response (CPAR) in model of amnesia, induced by the administration of scopolamine—a blocker of central cholinergic receptors.
Studies were performed using 470 male mice, body mass 20-22 g, using 20 animals for one dose. CPAR conditioning of mice was performed using step down method, in a cell with electrode floor and avoidance area. Parameters of electric stimulation for animals leaving the safety area were 50 V during 3-5 sec. The criterion of learning and memory was the staying of the animal in the area during 1 minute when testing 2 hours after training and 24 hours after training.
Learning deficit was induced by the administration of scopolamine (1.0 mg/kg, intraperitoneal) 15 minutes before the training and by reduction in the number of animal training sessions to 2 instead of 5 (undertraining).
The duration of the mnemotropic action of the compounds in conditions of learning deficit was assessed by the number of animals in a group (in percents), staying in safety zone (with immobilization).
To assess their action of different phases of memory development (fixation, consolidation and reproduction) the tested compounds were administered before the training (before scopolamine) and immediately after the training. The tested compounds were administered intraperitoneally using 2 schedules: […] and, correspondingly, 5 minutes before scopolamine, second—compounds in the same doses right after the training. Control was parallel in each series of experiments: one control group received saline solution instead of the tested compounds and scopolamine, second control group—scopolamine, using the same schedule and doses.
Statistical analysis was conducted with significance of difference from negative control at p<0.05.

Acute toxicity i/p = conditions: for Therapeutic index LD50/Min. ED: LD50 i/p / minimum effective dose in CPAR; for LD50: in vivo, intraperitoneal
[2] = dose 0.01 mg/kg i/p, scopolamine 1.0 mg/kg i/p amnesia
[3] = dose 0.1 mg/kg i/p, scopolamine 1.0 mg/kg i/p amnesia
[4] = dose 1.0 mg/kg i/p, scopolamine 1.0 mg/kg i/p amnesia
[5] = dose 10.0 mg/kg i/p, scopolamine 1.0 mg/kg i/p amnesia

CN1C(=O)C(=CNc2ccncc2)C(=O)N(C)C1=O [Compound 1, 1,3-dimethyl-5-[(4-pyridylamino)methylene]barbituric acid]
Number of animals with CPAR (%) [1, 2]: 90.0% | Number of animals with CPAR (%) [1, 3]: 80.0% | Number of animals with CPAR (%) [1, 4]: 60.0% | Number of animals with CPAR (%) [1, 5]: 50.0% | effect on learning and memory during scopolamine-induced amnesia [1]: improved learning and memory | Therapeutic index LD50/Min. ED (Acute toxicity i/p): 1530 | LD50 (Acute toxicity i/p): 15.3 ± 2.6 mg/kg

Nc1cc[n+](-c2nccc3c2cc([N+](=O)[O-])c(=O)n3-c2ccccc2)cc1 [Compound 2, 4-amino-1-(3-nitro-2-oxo-1-pheny-1,2-dihydro-1,6-naphthyridin-5-yl)pyridinium chloride]
Number of animals with CPAR (%) [1, 2]: 60% | Number of animals with CPAR (%) [1, 3]: 80% | Number of animals with CPAR (%) [1, 4]: 70% | Number of animals with CPAR (%) [1, 5]: 60% | effect on learning and memory during scopolamine-induced amnesia [1]: improved learning and memory | Therapeutic index LD50/Min. ED (Acute toxicity i/p): 10770 | LD50 (Acute toxicity i/p): 108 ± 14.1 mg/kg

CN1[C@@H]2C[C@@H](OC(=O)[C@H](CO)c3ccccc3)C[C@H]1[C@@H]1O[C@@H]12 [Scopolamine, scopolamine, reference compound]
learning ability (animals staying in safety area) after scopolamine ([1]; scopolamine 1.0 mg/kg i/p 15 minutes before training plus undertraining, average, controls about 80%): 28% | Number of animals with CPAR (%) ([1]; scopolamine alone 1.0 mg/kg i/p (amnesia control group)): 35%
